{"source": "patent US20170157051A1", "about": "“SOLUBILITY ENHANCEMENT FOR HYDROPHOBIC DRUGS” (Freund Pharmatec Ltd., priority 2013, published 2017)", "key": {"[1]": {"details": "cited from earlier work"}, "[2]": {"test": "Dissolution profile in biorelevant media (FaSSIF / FaSSGF), paddle apparatus", "format": "physicochemical", "details": "FaSSIF (fenofibrate, nifedipine, nimodipine, nabumetone) or FaSSGF (ibuprofen, gemfibrozil); 900 ml, 37° C., 75 rpm", "protocol": "Dissolution profile: The drug release profiles of the above formulations and the reference products (TRICOR ® 48 mg Fenofibrated tablets and Buplex® 200 mg Ibuprofen tablets) was tested in biorelevant dissolution media; using Fasted State Simulated Intestinal Fluid (FaSSIF) for Tricor® and Fasted State Simulated Gastric Fluid (FaSSGF) for Buplex®. USP […] (Paddle) was used.\nMedia temperature: 37° C.;\nPaddle rotation speed: 75 rpm;\nThe method used to measure the dissolution rate is as described under ‘dissolution profile’ in the previous example. […] All other conditions remained the same."}}, "note": "Like-named read-outs stand apart in the source and are kept apart here."}
{"smiles": "Cc1ccc(C)c(OCCCC(C)(C)C(=O)O)c1", "note": "[Gemfibrozil]", "values": [{"measurement": "solubility in water", "setting": "[1]; at 25° C.", "value": "< 1000", "unit": "µg/mL"}]}
{"smiles": "CC(C)Cc1ccc(C(C)C(=O)O)cc1", "note": "(stereo not shown) [Ibuprofen, iso-butyl-propanoic-phenolic acid]", "values": [{"measurement": "solubility in water", "setting": "[1]", "value": "Less than 1 mg/ml"}, {"measurement": "% drug dissolved / rate and extent of dissolution versus marketed product", "setting": "[2]", "value": "1:2.7 ratio of Maisine:Kolliphor showed higher dissolution than a 1:1.8 ratio"}]}
{"smiles": "COc1ccc2cc(CCC(C)=O)ccc2c1", "note": "[Nabumetone]", "values": [{"measurement": "solubility in water (in words)", "setting": "[1]", "value": "practically insoluble in water"}]}
